Our source for the mutagenic call values is PubChem BioAssay AID1259407 (Chemical Carcinogenesis Research Information System (CCRIS), 2018).

Structures are written as SMILES. Active and inactive are the calls of the source. The rule behind the calls is not given here.

This series relates to CCRIS mutagenicity, Ames/micronucleus/aberration tests. In words: CCRIS mutagenicity studies.
Where [1] appears, read: Test System: AMES SALMONELLA TYPHIMURIUM, Strain/Indicator: TA98, Metabolic Activation: NONE, Method: PREINCUBATION
Setting [2] is: Test System: AMES SALMONELLA TYPHIMURIUM, Strain/Indicator: TA100, Metabolic Activation: NONE, Method: PREINCUBATION
[3] abbreviates: Test System: AMES SALMONELLA TYPHIMURIUM, Strain/Indicator: TA1535, Metabolic Activation: NONE, Method: PREINCUBATION
[4] abbreviates: Test System: AMES SALMONELLA TYPHIMURIUM, Strain/Indicator: TA1537, Metabolic Activation: NONE, Method: PREINCUBATION

For the molecule `C=CCOC(=O)CC(C)C`, the mutagenic call by setting is: (End Point: IN VITRO CHROMOSOMAL ABERRATIONS, Test System: CHO CELLS, Metabolic Activation: NONE) “inactive; negative”; (Test System: AMES SALMONELLA TYPHIMURIUM, Strain/Indicator: TA98, Metabolic Activation: HAMSTER, LIVER, S-9, AROCLOR 1254, Method: PREINCUBATION) “inactive; negative”; under setting [1], “inactive; negative”; (Test System: AMES SALMONELLA TYPHIMURIUM, Strain/Indicator: TA98, Metabolic Activation: RAT, LIVER, S-9, AROCLOR 1254, Method: PREINCUBATION) “inactive; negative”; (Test System: AMES SALMONELLA TYPHIMURIUM, Strain/Indicator: TA100, Metabolic Activation: HAMSTER, LIVER, S-9, AROCLOR 1254, Method: PREINCUBATION) “inactive; negative”; under setting [2], “inactive; negative”. Further, the mutagenic call reads like this: (Test System: AMES SALMONELLA TYPHIMURIUM, Strain/Indicator: TA100, Metabolic Activation: RAT, LIVER, S-9, AROCLOR 1254, Method: PREINCUBATION) “inactive; negative”; (Test System: AMES SALMONELLA TYPHIMURIUM, Strain/Indicator: TA1535, Metabolic Activation: HAMSTER, LIVER, S-9, AROCLOR 1254, Method: PREINCUBATION) “inactive; negative”; under setting [3], “inactive; negative”; (Test System: AMES SALMONELLA TYPHIMURIUM, Strain/Indicator: TA1535, Metabolic Activation: RAT, LIVER, S-9, AROCLOR 1254, Method: PREINCUBATION) “inactive; negative”; (Test System: AMES SALMONELLA TYPHIMURIUM, Strain/Indicator: TA1537, Metabolic Activation: HAMSTER, LIVER, S-9, AROCLOR 1254, Method: PREINCUBATION) “inactive; negative”; under setting [4], “inactive; negative”. The mutagenic call (Test System: AMES SALMONELLA TYPHIMURIUM, Strain/Indicator: TA1537, Metabolic Activation: RAT, LIVER, S-9, AROCLOR 1254, Method: PREINCUBATION) is “inactive; negative”.

`CCCN(CC(C)O)N=O` (stereo not given): the mutagenic call (Test System: CHINESE HAMSTER V-79, Strain/Indicator: V-79/OUABAIN, Metabolic Activation: HAMSTER, HEPATOCYTES, Method: CELL-MEDIATED) was “active; positive”.

As to `C=CCc1ccc(OC)cc1`, the mutagenic call reads like this: (Test System: AMES SALMONELLA TYPHIMURIUM, Strain/Indicator: TA98, Metabolic Activation: HAMSTER, LIVER, S-9, AROCLOR 1254 (10%), Method: PREINCUBATION) “inactive; negative”; under setting [1], “inactive; negative”; (Test System: AMES SALMONELLA TYPHIMURIUM, Strain/Indicator: TA98, Metabolic Activation: NONE, Method: STANDARD PLATE) “inactive; negative”; (Test System: AMES SALMONELLA TYPHIMURIUM, Strain/Indicator: TA98, Metabolic Activation: RAT, LIVER, S-9, AROCLOR 1254 (10%), Method: PREINCUBATION) “inactive; negative”; (Test System: AMES SALMONELLA TYPHIMURIUM, Strain/Indicator: TA98, Metabolic Activation: RAT, LIVER, S-9, AROCLOR 1254, Method: STANDARD PLATE) “inactive; negative”; (Test System: AMES SALMONELLA TYPHIMURIUM, Strain/Indicator: TA100, Metabolic Activation: HAMSTER, LIVER, S-9, AROCLOR 1254 (10%), Method: PREINCUBATION) “inactive; negative”. The mutagenic call reads like this: under setting [2], “inactive; negative”; (Test System: AMES SALMONELLA TYPHIMURIUM, Strain/Indicator: TA100, Metabolic Activation: NONE, Method: STANDARD PLATE) “inactive; negative”; (Test System: AMES SALMONELLA TYPHIMURIUM, Strain/Indicator: TA100, Metabolic Activation: RAT, LIVER, S-9, AROCLOR 1254 (10%), Method: PREINCUBATION) “inactive; negative”; (Test System: AMES SALMONELLA TYPHIMURIUM, Strain/Indicator: TA100, Metabolic Activation: RAT, LIVER, S-9, AROCLOR 1254, Method: STANDARD PLATE) “inactive; negative”; (Test System: AMES SALMONELLA TYPHIMURIUM, Strain/Indicator: TA1535, Metabolic Activation: HAMSTER, LIVER, S-9, AROCLOR 1254 (10%), Method: PREINCUBATION) “inactive; negative”; under setting [3], “inactive; negative”. The mutagenic call by setting is: (Test System: AMES SALMONELLA TYPHIMURIUM, Strain/Indicator: TA1535, Metabolic Activation: NONE, Method: STANDARD PLATE) “inactive; negative”; (Test System: AMES SALMONELLA TYPHIMURIUM, Strain/Indicator: TA1535, Metabolic Activation: PAPS, Method: STANDARD PLATE) “inactive; negative”; (Test System: AMES SALMONELLA TYPHIMURIUM, Strain/Indicator: TA1535, Metabolic Activation: RAT, LIVER, S-9, AROCLOR 1254 (10%), Method: PREINCUBATION) “inactive; negative”; (Test System: AMES SALMONELLA TYPHIMURIUM, Strain/Indicator: TA1535, Metabolic Activation: RAT, LIVER, S-9, AROCLOR 1254, PAPS, Method: STANDARD PLATE) “active; positive”; (Test System: AMES SALMONELLA TYPHIMURIUM, Strain/Indicator: TA1535, Metabolic Activation: RAT, LIVER, S-9, AROCLOR 1254, Method: STANDARD PLATE) “inactive; negative”; (Test System: AMES SALMONELLA TYPHIMURIUM, Strain/Indicator: TA1537, Metabolic Activation: HAMSTER, LIVER, S-9, AROCLOR 1254 (10%), Method: PREINCUBATION) “inactive; negative”. Moreover, the mutagenic call reads like this: under setting [4], “inactive; negative”; (Test System: AMES SALMONELLA TYPHIMURIUM, Strain/Indicator: TA1537, Metabolic Activation: NONE, Method: STANDARD PLATE) “inactive; negative”; (Test System: AMES SALMONELLA TYPHIMURIUM, Strain/Indicator: TA1537, Metabolic Activation: RAT, LIVER, S-9, AROCLOR 1254 (10%), Method: PREINCUBATION) “inactive; negative”; (Test System: AMES SALMONELLA TYPHIMURIUM, Strain/Indicator: TA1537, Metabolic Activation: RAT, LIVER, S-9, AROCLOR 1254, Method: STANDARD PLATE) “inactive; negative”; (Test System: AMES SALMONELLA TYPHIMURIUM, Strain/Indicator: TA1538, Metabolic Activation: NONE, Method: STANDARD PLATE) “inactive; negative”; (Test System: AMES SALMONELLA TYPHIMURIUM, Strain/Indicator: TA1538, Metabolic Activation: RAT, LIVER, S-9, AROCLOR 1254, Method: STANDARD PLATE) “inactive; negative”. In addition, the mutagenic call runs as follows: (Test System: UDS RAT HEPATOCYTES, Strain/Indicator: THY INCORP, Metabolic Activation: NONE, Method: IN VITRO) “active; positive”; (Test System: UDS RAT HEPATOCYTES, Strain/Indicator: THY INCORP, Metabolic Activation: NONE, Method: IN VIVO) “active; positive”.
